Measured values: ChEMBL document CHEMBL5131432, “Novel 2,4-disubstituted quinazoline analogs as antibacterial agents with improved cytotoxicity profile: Modification of the benzenoid part” (Bioorg Med Chem Lett, 2022)
In brackets after ≈: the same amount, converted by molar mass.

Columns and labels:
[1] = test system: Staphylococcus aureus; test: Antibacterial activity against methicillin-sensitive Staphylococcus aureus Newman assessed as bacterial growth inhibition; format: functional
[2] = test system: Streptococcus pneumoniae; test: Antibacterial activity against Streptococcus pneumoniae DSM-20566 assessed as bacterial growth inhibition; format: functional
[3] = test system: Escherichia coli; test: Antibacterial activity against wild type Escherichia coli DSM-11116 assessed as bacterial growth inhibition; format: functional
[4] = test system: Staphylococcus aureus; test: Antibacterial activity against methicillin-resistant Staphylococcus aureus N315 assessed as bacterial growth inhibition; format: functional
[5] = test system: Enterococcus faecalis; test: Antibacterial activity against Enterococcus faecalis DSM-20478 assessed as bacterial growth inhibition; format: functional
[6] = test system: Staphylococcus aureus; test: Antibacterial activity against methicillin-resistant and vancomycin-intermediate Staphylococcus aureus Mu50 assessed as bacterial growth inhibition; format: functional
[7] = test system: Enterococcus faecium; test: Antibacterial activity against Enterococcus faecium DSM-20477 assessed as bacterial growth inhibition; format: functional
[8] = test system: Mycolicibacterium smegmatis; test: Antibacterial activity against Mycobacterium smegmatis assessed as bacterial growth inhibition; format: functional
[9] = test system: Escherichia coli; test: Antibacterial activity against Escherichia coli harbouring TolC-deficient mutant assessed as bacterial growth inhibition; format: functional
[10] = test system: Streptococcus pneumoniae; test: Antibacterial activity against penicillin-resistant Streptococcus pneumoniae DSM-11865 assessed as bacterial growth inhibition; format: functional
[11] = test system: Mycolicibacterium smegmatis; test: Antibacterial activity against Mycobacterium smegmatis mc2 155 assessed as bacterial growth inhibition; format: functional
[12] = test system: Escherichia coli; test: Antibacterial activity against Escherichia coli K12 harbouring TolC-deficient mutant assessed as bacterial growth inhibition; format: functional
[13] = Selectivity index, ratio of IC50 for cytotoxicity against human HepG2 cells to MIC for antibacterial activity against Enterococcus faecalis DSM-20478; format: toxicity, cell-based
[14] = Selectivity index, ratio of IC50 for cytotoxicity against human HepG2 cells to MIC for antibacterial activity against Enterococcus faecium DSM-20477; format: toxicity, cell-based
[15] = Selectivity index, ratio of IC50 for cytotoxicity against human HepG2 cells to MIC for antibacterial activity against methicillin-sensitive Staphylococcus aureus Newman; format: toxicity, cell-based
[16] = Selectivity index, ratio of IC50 for cytotoxicity against human HepG2 cells to MIC for antibacterial activity against Streptococcus pneumoniae DSM-20566; format: toxicity, cell-based
[17] = Cytotoxicity against human HepG2 cells assessed as inhibition of cell growth; format: toxicity, cell-based

CCCCNc1nc(SCCCC)nc2ccccc12
MIC [1]: 8 µg/mL (≈ 27.6 µM)
MIC [2]: 4 µg/mL (≈ 13.8 µM)
MIC [3]: > 128 µg/mL
MIC [4]: 8 µg/mL (≈ 27.6 µM)
MIC [5]: 4 µg/mL (≈ 13.8 µM)
MIC [6]: 4 µg/mL (≈ 13.8 µM)
MIC [7]: 4 µg/mL (≈ 13.8 µM)
MIC [8]: 2 µg/mL (≈ 6.91 µM)
MIC [9]: 2 µg/mL (≈ 6.91 µM)
MIC [10]: 3 µg/mL (≈ 10.4 µM)
MIC [11]: 8 µg/mL (≈ 27.6 µM)
MIC [12]: 2 µg/mL (≈ 6.91 µM)

CCCCNc1nc(SCCCC)nc2ccc(-c3cccc(O)c3)cc12
MIC [1]: 2 µg/mL (≈ 5.24 µM)
selectivity ratio [13]: 3
MIC [2]: 1 µg/mL (≈ 2.62 µM)
selectivity ratio [14]: 3
MIC [3]: > 128 µg/mL
MIC [4]: > 128 µg/mL
MIC [5]: 2 µg/mL (≈ 5.24 µM)
MIC [6]: > 128 µg/mL
MIC [7]: 4 µg/mL (≈ 10.5 µM)
selectivity ratio [15]: 3
selectivity ratio [16]: 3
MIC [10]: 16 µg/mL (≈ 41.9 µM)
IC50 [17]: 15.3 µg/mL (≈ 40.1 µM)
MIC [11]: 16 µg/mL (≈ 41.9 µM)
MIC [12]: > 128 µg/mL
